A short description of series [1]: Filtration test (0.2 μm filter). Conditions: for effect on the presence of fibrils in NFL-TBS40-63 formulation: amino acid added instead of alanine. The format is physicochemical. On the procedure:
Several formulations (containing NFL-TBS40-63 and various buffers, solubilizing and osmolarity adjusting agents) were tested for their aptitude to pass a 0.2 μm filter. […] The ease of filtration (manual pressure required) was recorded.
For grade 1 formulations, further filtration tests were performed with higher volumes of the test formulation, and a deliberately small filter area size, e.g. a 25 mm diameter with pores of 0.2 μm with 100 ml of the test formulation.

The nature of series [2]: Scanning Electron Microscopy (SEM) of dry powder. The format is physicochemical. Conditions: Lot AW18189D and Lot HF44004B. On the procedure: Scanning Electron Microscopy of NFL-TBS40-63 peptide dry powder was performed using an Jeol 6301F instrument. In brief, NFL-TBS40-63 peptide was lightly sprinkled onto double sided tape fixed to a SEM stub. Excess powder was shaken/tapped off, so as to leave a very thin layer of powder on the stub, which was then sputter coated with an ~10 nm layer of platinum, prior to observation. This technique allows visualization of the fibrils in the dry NFL-TBS40-63 peptide powder.

Series [3] is described as follows: Clarity test - degree of opalescence. It is filed as physicochemical. How it is done:
For preparations where the NFL-TBS40-63 peptide appeared to be visually dissolved (following the visual dissolution test), the clarity (opalescence) of the preparation was assessed, via visual inspection after placing the colourless glass tube close to a white light source. The degree of opalescence was a very useful predictor of a given preparation's ability to pass or block a sterilizing filter.

In series [4] the test system is U-87 MG cells implanted in the brains of BALB/c Nude mice. Briefly: In vivo U-87 MG brain tumor in nude mice, tolerance and MALDI-TOF imaging. Conditions: intravenous injection in the formulation of the invention, 1 hour after the final injection.
Method: Seven-week-old female Balb/c nude mice (Janvier, France) were housed at the university animal facility (Service Commun d'Animalerie Hospitalo-Universitaire—Université d'Angers, France). Animals had free access to water and food throughout the experiment and their behavior and body weight were constantly monitored. All procedures involving animals, were conducted in accordance with protocols approved by ethical committee of the University of Angers and the regional ethics committee on animal experimentations.
Mice were anesthetized by intraperitoneal injection of a mixture of ketamine 10% (80 mg/kg) and xylazine 2% (10 mg/kg). […] The injection coordinates were 2.1 mm lateral, 0.5 mm posterior from the bregma and 2.5 mm deep from the outer border of the cranium. […] Animals were sacrificed 1 hour after the last injection, and brains were removed and frozen in nitrogen vapors.
The MALDI-TOF MS analysis was performed on a Bruker BIFLEX III mass spectrometer (Bruker Daltonics; Germany) equipped with a nitrogen laser (337 nm wavelength, 3 ns laser pulse duration) with reflection and in the positive ion mode. The MS data were acquired over a mass range of m/z 2714 Da with pixels of 100 μm diameter but the capturing area is of 40 μm per pixel. Data have been normalized by Root Mean Square and the image has been smoothed by reducing background noise. […]
A short description of series [5]: Visual dissolution test / solubility of the peptide. The format is physicochemical.
In series [6] the test system is neuroblastoma and glioblastoma cell lines. The conditions noted are these: WO 2011/073207 and Bocquet et al. (2009); cited from earlier work.
Series [7] is described as follows: Dynamic Light Scattering (DLS). It is filed as physicochemical. On the procedure: FIG. 4A-C: DLS graphs showing the effect of the heating of the formulation containing L-alanine at different temperatures before adding NFL-TBS40-63 peptide followed by mixing for 1 h30 at A. room temperature (RT); B. 30-35° C., and C. 40-45° C. […] Low attenuator values (e.g. ≤8) indicate that there were substantially more particles in the sample.
Dynamic Light Scattering (DLS) measurements were performed on the several formulations of grade 1 and 2 using a Malvern Nano-S instrument. Although the technique is not quantitative, it provided important information on the relative size of the objects (fibrils) present in the various formulations, throughout out the process of dissolution.
The attenuator value also gives a measure of the quantity of particles present: the higher the attenuator value, the less particles present.

Series [8] has as its system b.End3 murine endothelial cells. In words: MTS viability assay (mitochondrial activity). Conditions: 72 hours, peptide in Clinic vehicle F28C1 compared with Glucose 5%. The format is cell-based. How it is done:
(§1) Cells were seeded in 96-well plates at 1,000 per well for b.End3 murine endothelial cells and F98 rat GBM cells, and 5,000 cells and U-87 MG human GBM cells, and incubated for 24 hours at 37° C. and 5% CO2. Then, the culture media was removed and cells were treated for 72 hours at 37° C. and 5% CO2 with increasing concentrations (25, 50, 100 and 200 μM) of GC01-G5% (NFL-TBS40-63 peptide (GC01) partially solubilized with 5% glucose) or GC01.1 (NFL-TBS40-63 peptide (GC01) fully solubilized in the formulation of the invention F28C1), or with 1 μg/mL of colchicine, or the 5% glucose solution and the Clinic vehicle, diluted in fresh media. Cell viability was measured using the MTS viability assay (ab197010-Abcam; Paris, France). After rinsing the cells with 1×DPBS (Dulbecco's Phosphate Buffered Saline-Gibco; Dardilly, France), 20 μL of MTS reagent was added to each well for 2 hours. The number of living cells is directly proportional to the absorbance measured by the amount of light absorbance at 490 nm in a SpectraMax M2 multi-scanning spectrophotometer (Molecular Devices; San Jose, California, USA).

Series [9] relates to U-87 MG human GBM cells. In words: MTS viability assay (mitochondrial activity). The format is cell-based. The conditions noted are these: 72 hours, peptide in Clinic vehicle F28C1 compared with Glucose 5%. How it is done: as §1
The subject of series [10] is b.End3 murine endothelial cells. Briefly: Immunocytochemistry of tubulin. It is filed as cell-based. Conditions: 100 μM, 48 hours. How it is done: (§2) To visualize the treatment internalization, 20,000 and 35,000 cells per well for b.End3 murine endothelial cells and U-87 MG human GBM cells, respectively, were seeded in 24-well plates containing one coverslip previously coated with poly (d) lysine 0.1 mg/ml per well and washed three times with 1×DPBS (Sigma-Aldrich; Saint-Louis, USA) and incubated for 24 hours at 37° C. and 5% CO2. Then, the cells were incubated with 100 μM of GC01-G5% (NFL-TBS40-63 peptide (GC01) peptide partially solubilized with 5% glucose) or 100 μM of GC01.1 (NFL-TBS40-63 peptide (GC01) fully solubilized in the formulation of the invention F28C1), or with 1 μg/mL of colchicine for 48 hours at 37° C. At the end of the incubation time, cells were washed three times with 1×DPBS and fixed with 4% paraformaldehyde (15714-Delta microscopies; Mauressac, France) for 10 min at room temperature. Then, treated cells were permeabilized with 0.2% triton X-100 (T9284—Sigma-Aldrich; Saint-Louis, USA) for 10 min, and blocked with 5% bovine serum albumin (A7030—Sigma-Aldrich; Saint-Louis, USA) for 45 min at room temperature. Cells were co-incubated with a mouse anti-a tubulin (ab7750-Abcam; Paris, France) and a rabbit anti-βIII tubulin antibodies at 1:250 (T2200—Sigma-Aldrich; Saint-Louis, USA) overnight at 4° C. […]

Series [11] concerns U-87 MG human GBM cells. Briefly: Immunocytochemistry of tubulin. The conditions noted are these: 100 μM, 48 hours. It is filed as cell-based. On the procedure: as §2
A short description of series [12]: Transmission Electron Microscopy (TEM) of fibrils. It is filed as physicochemical. On the procedure:
Transmission Electron Microscopy imaging of various formulations was performed using a Jeol JEM-1400 instrument. Sample preparation was as follows: one drop of the liquid to be examined was deposited onto a TEM gird and allowed to settle for ~1 minute. Excess liquid was then absorbed with blotting paper, and one drop of a 2% solution of uranyl acetate was deposited on the grid. After ~2 minutes the excess solution was absorbed with blotting paper, and the grid was rinsed twice, using with a drop of water each time. The grid was then dried, prior to examination in the TEM. This technique allowed visualization of the fibrils of NFL-TBS40-63 peptide in the various formulations and in water.

The test system of series [13] is U-87 MG cells. Briefly: Calcein/PI flow cytometry after passage through the endothelial monolayer. The format is cell-based, human. Conditions: Transwell conditions + U-87 MG cells, 24 h treatment + 48 hours. On the procedure:
After 24 hours of treatment, the endothelial cell monolayer was removed, and the U-87 MG cells were incubated at 37° C. for an additional 48 hours. At this time, U-87 MG cells were collected as previously described in section 1.4. To evaluate cell viability were stained with 1 μM of Calcein green (Thermo Fisher Scientific; Massachusetts, USA) for 30 min at room temperature in the dark. Then re-suspended in Propidium Iodide and analyzed by flow cytometry. 10,000 cells were measured for each experiment.

Here are results for 6 molecules from US20260240768A1, “PHARMACEUTICAL COMPOSITION COMPRISING NFL-TBS40-63 PEPTIDE, VARIANTS OR SALTS THEREOF AND ALANINE” (GLIOCURE, priority 2022, published 2026).

Where “and” joins values, the source holds several entries; their conditions need not be identical. Identical values can stand only once. Entries after “also recorded” stand apart in the source; their conditions may differ. Like-named read-outs stand apart in the source and are kept apart here. Where a SMILES comes first, the peptide text is derived from it. The star is where a group is joined. Biotin = O=C1N[C@H]2[C@H](CS[C@H]2CCCCC(=O)*)N1

As for `NC(=O)CC[C@H](N)C(=O)O` [L-glutamine], in [1], the “effect on the presence of fibrils in NFL-TBS40-63 formulation” value (“effect on the presence of fibrils” for short) is “did not have any positive effect”.
As for `CC[C@H](C)[C@H](N)C(=O)O` [L-isoleucine], the “effect on the presence of fibrils” value in series [1] was “did not have any positive effect”.
Still for that read-out and setting: the same measure for `CC(C)C[C@H](N)C(=O)O` [L-leucine]: “did not have any positive effect”; for `CSCC[C@H](N)C(=O)O` [L-methionine]: “did not have any positive effect”.
Regarding `CC(C)[C@H](N)C(=O)O` [L-valine], in series [1], the “effect on the presence of fibrils” value is “did not have any positive effect”.
As for `CC(C)C[C@H](NC(=O)[C@H](CO)NC(=O)[C@H](CO)NC(=O)[C@H](CO)NC(=O)[C@@H](NC(=O)[C@@H]1CCCN1C(=O)[C@H](C)NC(=O)[C@H](CO)NC(=O)[C@H](Cc1ccc(O)cc1)NC(=O)[C@H](CO)NC(=O)[C@H](CO)NC(=O)[C@H](Cc1ccc(O)cc1)NC(=O)CCCC[C@@H]1SC[C@@H]2NC(=O)N[C@@H]21)C(C)C)C(=O)N[C@@H](CO)C(=O)N[C@H](C(=O)N[C@@H](CCCNC(=N)N)C(=O)N[C@@H](CCCNC(=N)N)C(=O)N[C@@H](CO)C(=O)N[C@@H](Cc1ccc(O)cc1)C(=O)N[C@@H](CO)C(=O)N[C@@H](CO)C(=O)N[C@@H](CO)C(=O)N[C@@H](CO)C(=O)NCC(=O)N[C@@H](CO)C(N)=O)C(C)C` [NFL-TBS40-63 peptide] (Biotin-YSSYSAPVSSSLSVRRSYSSSSGS-NH2; N-terminus and C-terminus assumed), in series [2], the “structures in dry powder by SEM” value was “fibril-like structures”. For the same molecule, the “opalescence of the solution” value was “slightly opalescent” in series [3] (F28C1 with 25 mM L-alanine, 1.5 mg/mL peptide); “very slightly opalescent” in series [3] (F28C1 with 50 mM L-alanine, 1.5 mg/ml peptide); “slightly opalescent” in [3] (F28C1 with 112 mM L-alanine, 1.5 mg/ml peptide); “slightly opalescent” in series [3] (F28C1 with 225 mM L-alanine, 1.5 mg/ml peptide); “slightly opalescent” in series [3] (F28C1 with 670 mM L-alanine, 0.5 mg/mL peptide). Further, the “peptide in the tumor by MALDI-TOF imaging” value in series [4] is given as “accumulation”. Also, in [1] (1 mg/ml in water), the “passage of 0.2 μm sterilizing filter” value is “very quickly block”. In addition, the “behaviour of pre-filter and sterilizing filters” value in series [1] (3 mg/ml in G5% (5% glucose in water for injection)) is on record as “tended to clog up quite quickly”. For the same molecule, the filter grade in series [1] (F28C1 with 25 mM L-alanine, 1.5 mg/mL peptide, 1 mL, 13 mm 0.2 μm filter) is 2; in series [1] (F28C1 with 50 mM L-alanine, 1.5 mg/ml peptide, 5 mL, 13 mm 0.2 μm filter) it was 1 to 2; in series [1] (F28C1 with 112 mM L-alanine, 1.5 mg/ml peptide, 1 mL, 13 mm 0.2 μm filter), 2; in [1] (F28C1 with 225 mM L-alanine, 1.5 mg/ml peptide, 1 mL, 13 mm 0.2 μm filter), 2 to 3 and 3; in [1] (F28C1 with 670 mM L-alanine, 0.5 mg/mL peptide, 13 mm 0.2 μm filter), 3; in [1] (with no alanine) it was 3. Further, the “sterilizing filtration through 0.2 μm” value in [1] (micronized powder in F28C1, after 0.45 μm pre-filtration) is “successful”. Also, the “dissolution of the peptide” value in series [5] (3 mg/ml in G5% (5% glucose in water for injection), even after heating 1.5 h at 40 to 45° C.) is “less well dissolved”. In addition, the solubility at 2 min is < 800 µg/mL in series [5] (50 mM glutamine and 50 mM arginine, read-out: solubility); < 2500 µg/mL in [5] (in water, read-out: intrinsic aqueous solubility). The precipitation entry in series [5] (in the presence of sodium or potassium ions) is reported as “tends to irreversibly precipitate”. Besides, in [5] (nearly all commonly used parenteral buffer systems), the “solubility in commonly used parenteral buffer systems” value is “insoluble”. The “inhibition of proliferation in vitro” value in series [6] is recorded as “able to inhibit the proliferation”. Further, the “DLS single peak, particle size” value in [7] (micronized powder in F28C1, 1.5 hours mixing at ambient temperature (20° C.), prior to pre-filtration) was “around 300 nm”. In [7] (solution F28C heated to 40-45° C. before adding the peptide, mixing 1h30), this molecule gave a DLS attenuator value of 10. The “cytotoxicity profile (cell viability, MTS)” value in series [8] and in series [9] was “retains its properties” each time. In addition, the “effect on tubulin (immunostaining)” value in [10] and in series [11] was “alteration of tubulin” each time. Moreover, the “number and size of fibrils by TEM” value in series [12] (composition containing 50 mM of L-alanine and 1 mg/mL peptide) is “significantly reduced; also recorded: virtually no fibrils were visible”. Also, the “fibrillar structures by TEM” value in series [12] (in water, 1 mg/mL and 0.27 mg/ml) is listed as “fibrillar structure; also recorded: fibril structure”. For the same molecule, the “length of sub-visible fibrillar structures” value in series [12] (self-association) is on record as ≤ 2 μm. In addition, the entries for the “percentage of dead cells” value in [13] (listed as Biot-NFL) and in series [13] (listed as GC01) were 16.6±5.4% and 30.1±7.9%, respectively.
